# Tests used:
# Assay type in all cases: cell-based, human
# [1] = tested on: 28S and 18S ribosomal RNA; test: ribosomal RNA by agarose-formaldehyde gel electrophoresis and ethidium bromide staining; details: MazF expressed for 72 hours, T-Rex-293 cells
# Description: Total RNA from Tet-treated or -untreated T-Rex-293 cells at the indicated time points was probed with ^32P-labeled human GAPDH and β-actin cDNA. 28S and 18S ribosomal RNAs were visualized by agarose-formaldehyde gel electrophoresis followed by ethidium bromide staining. […] Human GAPDH and β-actin mRNA levels were quantified by real-time RT-PCR. Relative amounts of mRNA were calculated from the fluorescence signal in the 24-, 48- and 72-hours samples as compared with the corresponding 0-hour sample.
# T-Rex-293 cells [2] = test: 35S-methionine metabolic labeling (protein synthesis)
# Description: T-Rex-293 (mazF/pcDNA3) and T-Rex-293 (mazF/mazE) cells were incubated for 0, 24 and 48 hr in tetracycline-containing complete DMEM followed by incubation for 1 hr in fresh methionine-free DMEM containing 10 μCi/ml ^35S-methionine. The cells then were washed with PBS twice and lysed in 2× Laemmli buffer. The cell lysate was subjected to SDS-PAGE followed by autoradiography and coomassie blue stain. Signal intensity was measured by Phosphoimager STORM 860 (Molecular Dynamics, Sunnyvale, Calif.).
# T-Rex-293 cells [3] = test: phase contrast morphology / cytopathic effect; details: T-Rex-293, 72 hours post-induction of MazF
# T-Rex-293 cells [4] = test: trypan blue exclusion viability; details: T-Rex-293 (mazF/pcDNA3), MazF expression induced
# Description: The viability of T-Rex-293 cells was determined by trypan blue exclusion as previously described (Degenhardt, K., et al., J. Biol. Chem. 277: 14127-14134 (2002)). T-Rex-293 (mazF/pcDNA3) and T-Rex-293 (mazF/mazE) cells were cultured for 24 hr before tetracycline treatment and then incubated for 0, 24, 48 and 72 hr at 37° C. in the presence or absence of 10 μg/ml tetracycline. After treatment, cells were collected by centrifugation of the supernatant plus adherent cells, which were harvested by trypsinization. Cells were resuspended in 500 μl of fresh medium containing 0.1% trypan blue solution (Sigma, St. Louis, Mo.) and then counted on a hemocytometer to assess the number of dead blue cells and the total number of cells counted. As a control for apoptotic cell death, T-Rex-293 (mazF/mazE) cells were treated with 1 μM staurosporine (Sigma, St. Louis, Mo.) for same time periods concurrently with tetracycline treatment.
# T-Rex-293 cells [5] = test: FACS analysis of propidium iodide labeling (sub-G1 peak); details: T-Rex-293 (mazF/pcDNA3), 72 hours of Tet induction
# Description: T-Rex-293 (mazF/pcDNA3) cells and T-Rex-293 (mazF/mazE) cells treated with tetracycline for 0, 24, 48 and 72 hr were harvested by trypsinization, pelleted by centrifugation and resuspended in PBS. The cells were fixed with ice-cold 70% ethanol for 30 min and stained with propidium iodide (10 μg/ml) and RNase A (100 μg/ml) overnight. The cells were analyzed on a Becton Dickinson FACSCalibur system (San Jose, Calif.).
# BCL-2 family proteins = test: Western blot of BCL-2 family proteins in T-Rex-293 lysates
# Description: Western blot analysis and immunofluorescence were performed as previously described (Perez, D., and White, E. J. Cell Biol. 141: 1255-1266 (1998); Perez, D., and White, E. Mol. Cell 6: 53-63 (2000)). The term “Western blot” refers to a method for identifying proteins in a complex mixture; proteins are separated electrophoretically in a gel medium; transferred from the gel to a protein binding sheet or membrane; and the sheet or membrane containing the separated proteins exposed to specific antibodies which bind to, locate, and enable visualization of protein(s) of interest. T-Rex-293 (mazF/pcDNA3) and T-Rex-293 (mazF/mazE) cells were harvested at 0, 24, 48 and 72 hr post-treatment with tetracycline or staurosporine by scraping and centrifugation. All cell pellets were lysed in 2× Laemmli buffer. Cell lysates were subjected to electrophoresis on a 15% SDS-PAGE gel and then transferred onto an Immobilon-P membrane (Millipore, Bedford, Mass.). […]
substance,measurement,setting,value
MazF: E. coli toxin; sequence specific endoribonuclease (mRNA interferase) cleaving single-stranded RNAs at ACA sequences; expressed from plasmid pcDNA4/TO/mazF,levels of 28S and 18S ribosomal RNA,[1],did not change
same,total protein levels (Coomassie blue),"T-Rex-293 cells [2]; MazF expressing T-Rex-293 cells, over the 48 hour induction period",remain constant
same,protein synthesis (35S-methionine incorporation),"T-Rex-293 cells [2]; T-Rex-293 (mazF/pcDNA3), 24 hours post induction of MazF",strikingly inhibited
same,number of attached cells,T-Rex-293 cells [3],dramatically decreased
same,cell viability (trypan blue exclusion),T-Rex-293 cells [4],dropped strikingly
same,sub-G1 peak,T-Rex-293 cells [5],65.9%
same,levels of BCL-2 family proteins (Western blot),"BCL-2 family proteins; T-Rex-293, MazF induction 0-72 hours",remained unchanged
same,truncated BID (tBID) (Western blot),"BCL-2 family proteins; T-Rex-293, during MazF-induced apoptosis",undetectable
